Experimental data from patent publication US7189383B2, “Radioactively labelled amino acid analogues, their preparation and use” (Mallinckrodt Inc., priority 2002, dated 2007).
One block for each compound: values may come before it.

Assays:
R1M cells = assay: Preliminary uptake experiments in R1M cells in vitro; assay type: cell-based; conditions: buffer simulating in vivo conditions
Description: The inventors considered based on the results obtained with ^18F-FET and their own results with 2-^123I-Phe and 2-^123I-Tyr that the aromatic amino acid properties are conserved after substitution of an O-ethyl group and even in the presence of a voluminous iodine atom. This invention is thus based on the new approach to introduce an alkyl side chain on the phenyl ring to facilitate introduction of the radioactive atom. They thus provided an ^18F-alkyl-phenyl structure in phenylalanine and tyrosine, either ortho, meta or para. Examples are ^18F-CH[…] or ^18F-CH2-CH[…] and 2-^18F-CH[…] or 2-^18F-CH2-CH[…]. This reduces the labelling chemistry to direct conventional nucleophilic aliphatic substitution on the alkylphenylic side branch of the L-amino acid. In this approach cumbersome stereospecific synthesis is not required. The same strategy was followed for the radio-fluorination of the aliphatic amino acids leucine and isoleucine. […] Since aliphatic-substituted F hardly changes the pharmacology, it follows that these aliphatic amino acids are also suitable molecules for radio-fluorination.

[1] = system: RIM tumour (rhabdomyo-sarcoma); assay: In vivo evaluation of SPECT tracers in RIM tumour (rhabdomyo-sarcoma)-bearing rats; set-up: species or system rat
Description: In the research that led to the invention two new potential SPECT tracers, 2-^123I-tyrosine (2-^123I-Tyr) and 2-^123-I-phenylalanine, were developed.

[2] = molecular target: T1, L-transport system 1 (LAT1) (Rattus norvegicus, UniProt Q63016); assay: Inhibition of L-3H-phenylalanine uptake in rat rhabdomyo-sarcoma (R1M) cells in vitro; assay type: cell-based
T1 construct: endogenous in cells; host or cells: R1M rat rhabdomyosarcoma cells
Method: FIG. 1: Inhibition of ^3H-Phe/Phe uptake in R1M cells in vitro by L-2-F-methyl-PHE. The common intercept proves that the inhibition is competitive and that L-2-F-methyl-Phe uses the same transport system as L-Phe.
The affinity of L-2-F-methyl-phenylalanine for uptake by the L-transport system 1 (LAT1) in cancer cells (rat rhabdomyo-sarcoma cells) was determined by measuring the inhibition of the uptake of L-^3H-phenylalanine after 15 minutes incubation in HEPES buffer of pH 7.4 containing appropriate amounts of L-phenylalanine and of L-2-F-methyl-phenylalanine. The uptake was saturable and followed the typical Michaelis-Menten relation allowing to draw Lineweaver-Burk (FIG. 1) plots.

R1M tumour = assay: PET of R1M tumour bearing rat after intravenous injection; assay type: in vivo; conditions: 120 Mbq intravenously, FIG. 2
Description: FIG. 2: PET of R1M tumour bearing rat. The tumour is visible at the upper right, the pancreas in the middle and the bladder under. 120 Mbq L-2-^18F-methyl-phenylalanine was intravenously injected.
In Vivo Rat Evaluation of L-2-18F-methyl-phenylalanine in a R1M Tumour Bearing Rat by Means of PET
The latter is typical for rodent.

T1 sequence (Q63016 whole entry): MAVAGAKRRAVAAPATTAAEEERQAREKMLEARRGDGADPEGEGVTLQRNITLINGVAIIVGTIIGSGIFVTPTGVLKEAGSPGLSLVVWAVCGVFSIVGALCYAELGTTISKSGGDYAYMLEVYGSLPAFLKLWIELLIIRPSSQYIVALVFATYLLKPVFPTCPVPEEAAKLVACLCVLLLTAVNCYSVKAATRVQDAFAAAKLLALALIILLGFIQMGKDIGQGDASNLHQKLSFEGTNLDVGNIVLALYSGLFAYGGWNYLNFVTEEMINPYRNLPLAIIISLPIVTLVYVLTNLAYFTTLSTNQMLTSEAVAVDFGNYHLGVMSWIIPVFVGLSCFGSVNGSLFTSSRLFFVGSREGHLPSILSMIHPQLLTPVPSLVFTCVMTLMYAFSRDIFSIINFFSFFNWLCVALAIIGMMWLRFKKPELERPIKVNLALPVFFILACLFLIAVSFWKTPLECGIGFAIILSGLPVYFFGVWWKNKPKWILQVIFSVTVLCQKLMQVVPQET
T1 sequence (Q794F9 whole entry partner): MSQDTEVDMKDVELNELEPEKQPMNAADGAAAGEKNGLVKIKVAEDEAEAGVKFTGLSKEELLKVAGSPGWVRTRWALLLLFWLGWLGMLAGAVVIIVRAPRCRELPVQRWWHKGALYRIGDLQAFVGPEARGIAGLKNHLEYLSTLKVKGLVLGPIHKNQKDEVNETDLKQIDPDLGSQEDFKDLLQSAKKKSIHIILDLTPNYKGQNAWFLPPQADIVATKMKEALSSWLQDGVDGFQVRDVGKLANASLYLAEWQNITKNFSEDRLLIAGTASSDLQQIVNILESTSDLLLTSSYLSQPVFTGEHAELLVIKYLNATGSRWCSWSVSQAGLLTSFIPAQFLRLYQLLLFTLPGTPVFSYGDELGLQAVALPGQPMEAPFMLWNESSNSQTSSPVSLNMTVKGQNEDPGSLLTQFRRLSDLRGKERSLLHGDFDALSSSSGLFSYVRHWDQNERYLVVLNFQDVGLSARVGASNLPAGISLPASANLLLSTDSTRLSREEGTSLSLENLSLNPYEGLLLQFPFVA

activity in the kidneys relative to IMT ([1]; rat, in vivo): 10 times less | high brain uptake observed ([1]; rat, in vivo): no | renal accumulation ([1]; rat, in vivo): no renal accumulation | uptake in the tumours ([1]; rat, in vivo): high uptake
Compound: N[C@@H](Cc1ccccc1[123I])C(=O)O [2-^123-I-phenylalanine]

Km ([2]; same conditions: 15 minutes incubation, HEPES buffer pH 7.4, rat rhabdomyo-sarcoma cells): 65 µM
Compound: N[C@@H](Cc1ccccc1)C(=O)O [L-phenylalanine]

accumulation in the kidneys or other organs (PET) (R1M tumour): No accumulation | uptake in the tumour and pancreas (PET) (R1M tumour): high uptake
Compound: N[C@@H](Cc1ccccc1C[18F])C(=O)O [L-2-18F-methyl-phenylalanine]
route of clearance (PET) (R1M tumour): cleared through the kidneys to the bladder

Second part, the compound before the results:

Compound: ^3H-isoleucine
uptake in R1M cells (R1M cells): comparable with 3H-Tyr and ^3H-Phe

Compound: N[C@@H](Cc1ccc(O)cc1[123I])C(=O)O [2-^123I-tyrosine]
activity in the kidneys relative to IMT ([1]; RIM tumour-bearing rats): 10 times less | high brain uptake observed ([1]; RIM tumour-bearing rats): no | renal accumulation ([1]; RIM tumour-bearing rats): no renal accumulation | uptake in the tumours ([1]; RIM tumour-bearing rats, comparable with IMT): high uptake

Compound: N[C@@H](Cc1ccccc1CF)C(=O)O [L-2-F-methyl-phenylalanine]
Ki ([2]; 15 minutes incubation, HEPES buffer pH 7.4, rat rhabdomyo-sarcoma cells): 76 µM | type of inhibition of 3H-Phe/Phe uptake (Lineweaver-Burk plots) ([2]; R1M cells in vitro, FIG. 1): competitive

Compound: CC(C)C[C@H](N)C(=O)O [^3H-leucine]
uptake in R1M cells (R1M cells): comparable with 3H-Tyr and ^3H-Phe
